The values below come from patent US6716881B2, “Carbanilides used as pesticides” (Bayer Aktiengesellschaft, priority 1996, dated 2004).

Structures are written as SMILES.

In one data set the test system is Venturia inaequalis. The experiment in a line: Venturia test (apple)/protective (Example B, spray liquor concentration). Type of data set: in vivo. Conditions: protective, 100 ppm in spray liquor, evaluation 12 days after inoculation. As for the experimental part: Venturia Test (Apple)/Protective
(§1) To produce a suitable preparation of active compound, 1 part by weight of active compound is mixed with the stated amounts of solvent and emulsifier, and the concentrate is diluted with water to the desired concentration.
To test for protective activity, young plants are sprayed with the preparation of active compound until dew-moist. After the spray-coating has dried on, the plants are inoculated with an aqueous conidia suspension of the causative organism of apple scab Venturia inaequalis and then remain in an incubation cabin at 20° C. and 100% relative atmospheric humidity for 1 day.
(§2) The plants are then placed in a greenhouse at 23° C. and a relative atmospheric humidity of approximately 70%.
Evaluation is carried out 12 days after the inoculation. 0% means an efficacy which corresponds to that of the untreated control, while an efficacy of 100% means that no infection is observed.

The test system of data set [1] is caterpillars of diamond-back moth (Plutella maculipennis). Kind of data set: Plutella test. The data set is classed as in vivo. Conditions: cabbage leaves dipped, active compound concentration 0.1 %. Here is the method: To produce a suitable preparation of active compound, 1 part by weight of active compound is mixed with the stated amount of solvent and the stated amount of emulsifier, and the concentrate is diluted with water to the desired concentration.
Cabbage leaves (Brassica oleracea) are treated by being dipped into the preparation of active compound of the desired concentration and are populated with caterpillars of diamond-back moth (Plutella maculipennis) while the leaves are still moist.
After the desired period of time, the kill in % is determined. 100% means that all the caterpillars have been killed; 0% means that none of the caterpillars have been killed.

The test system of another data set is Coniophora puteana. The experiment in a line: Inhibitory test with giant colonies of Basidiomycetes (Coniophora puteana). The data set is classed as cell-based. Particulars: after 3 or 7 days at 26° C., vs untreated control; for inhibition at 1 ppm / Inhibition of the growth of the hypha in % with Coniophora puteana at an active compound concentration of 1 ppm: 1 ppm in agar; for inhibition at 1 ppm: read-out: Inhibition of the growth of the hypha in % with Coniophora puteana at an active compound concentration of 1 ppm; for inhibition at 3 ppm / Inhibition of the growth of the hypha in % with Coniophora puteana at an active compound concentration of 3 ppm: 3 ppm in agar; for inhibition at 3 ppm: read-out: Inhibition of the growth of the hypha in % with Coniophora puteana at an active compound concentration of 3 ppm; for inhibition at 6 ppm / Inhibition of the growth of the hypha in % with Coniophora puteana at an active compound concentration of 6 ppm: 6 ppm in agar; for inhibition at 6 ppm: read-out: Inhibition of the growth of the hypha in % with Coniophora puteana at an active compound concentration of 6 ppm. As for the experimental part: (§3) Inhibitory Test with Giant Colonies of Basidiomycetes.
(§4) To produce a suitable preparation of active compound, 0.2 parts by weight of active compound are admixed with 99.8 parts by weight of the abovementioned solvent.
(§5) An agar which has been prepared using malt extract peptone is mixed in the liquid state with the preparation of active compound at the particular desired application rate. After the agar has set, the resulting nutrient medium is incubated at 26° C. with pieces of mycelium which had been punched out of colonies of Coniophora puteana or Coriolus versicolor.
(§6) Evaluation is carried out after 3 or 7 days' storage at 26° C. by measuring the growth of the hypha and scoring the resulting inhibition in percent in comparison to the untreated control. 0% means an inhibition of growth which corresponds to that of the untreated control, while an inhibition of growth of 100% means that no growth of the hypha is observed.

The test system of a further data set is Coriolus versicolor. The experiment in a line: Inhibitory test with giant colonies of Basidiomycetes (Coriolus versicolor). Type of data set: cell-based. Particulars: after 3 or 7 days at 26° C., vs untreated control; for inhibition at 1 ppm / inhibition at 3 ppm / inhibition at 6 ppm: Trametes versicolor; for inhibition at 1 ppm / Inhibition of the growth of the hypha in % with Coriolus versicolor at an active compound concentration of 1 ppm: 1 ppm in agar; for inhibition at 1 ppm: read-out: Inhibition of the growth of the hypha in % with Coriolus versicolor at an active compound concentration of 1 ppm; for inhibition at 3 ppm / Inhibition of the growth of the hypha in % with Coriolus versicolor at an active compound concentration of 3 ppm: 3 ppm in agar; for inhibition at 3 ppm: read-out: Inhibition of the growth of the hypha in % with Coriolus versicolor at an active compound concentration of 3 ppm; for inhibition at 6 ppm / Inhibition of the growth of the hypha in % with Coriolus versicolor at an active compound concentration of 6 ppm: 6 ppm in agar; for inhibition at 6 ppm: read-out: Inhibition of the growth of the hypha in % with Coriolus versicolor at an active compound concentration of 6 ppm. As for the experimental part:
as §3, §4, §5, §6

The test system of the next data set is Podosphaera leucotricha. The experiment in a line: Podosphaera test (apple)/protective. Particulars: protective, 100 ppm in spray liquor, evaluation 10 days after inoculation. The data set is classed as in vivo. Here is the method:
Podosphaera Test (Apple)/Protective
as §1
To test for protective activity, young plants are sprayed with the preparation of active compound until dew-moist. After the spray-coating has dried on, the plants are inoculated by dusting with conidia of the causative organism of apple mildew Podosphaera leucotricha.
as §2
Evaluation is carried out 10 days after the inoculation. 0% means an efficacy which corresponds to that of the untreated control, while an efficacy of 100% means that no infection is observed.

As for `Cc1nc(C(F)(F)F)c(C(=O)Nc2ccccc2Oc2ccccc2)s1`, the “Efficacy in % at an active compound concentration in the spray liquor of 100 ppm” value (“Efficacy in %” below) with Venturia inaequalis was found to be 94%.
Consider `CC1=C(C(=O)Nc2ccccc2OCc2cc(Cl)cc(Cl)c2)SCCO1`, for which, in data set [1], the “Degree of kill in % after 7 d” value is 100%.
`Cc1cccc(COc2ccccc2NC(=O)c2cn(C)nc2C)c1`: the “Degree of kill in % after 7 d” value in data set [1] is listed as 100%.
The same measure, in the same setting: the figure for `O=C(Nc1ccccc1OCc1ccccc1)C1=C(C(F)(F)F)OCCS1` is 90%; for `Cc1ccccc1OCc1ccccc1NC(=O)c1ccccc1C(F)(F)F` it is 100%.
In turn, `Cn1cc(C(=O)Nc2ccccc2Oc2ncnc(F)c2F)c(C(F)(F)F)n1` [Example 3, 2-(4,5-difluoro-pyrimdyl-6-oxy)-1-methyl-3-trifluoro-methyl-1-pyrazole-4-carboxanilide] came in with a melting point of 197 °C.
`Cn1cc(C(=O)Nc2ccccc2C=Cc2ccccc2)c(C(F)(F)F)n1` [Example 16]: the melting point was found to be 117 °C. For the same molecule, in the data set on Coniophora puteana, the inhibition at 1 ppm was found to be 80%, the inhibition at 3 ppm stood at 100% and the inhibition at 6 ppm is 100%. In the data set with Coriolus versicolor, the inhibition at 1 ppm amounted to 100%, the inhibition at 3 ppm stood at 100% and the inhibition at 6 ppm was 100%.
In turn, `Cn1cc(C(=O)Nc2ccccc2C=Cc2ccccc2)c(C(F)F)n1` [Example 20] showed a melting point of 122 °C. Besides, in the data set with Coniophora puteana, the inhibition at 1 ppm was 100%, the inhibition at 3 ppm is 100% and the inhibition at 6 ppm was determined as 100%. Besides, in the data set on Coriolus versicolor, the inhibition at 1 ppm is 100%, the inhibition at 3 ppm was found to be 100% and the inhibition at 6 ppm was 100%.
As to `Cc1ccc(SCc2ccccc2NC(=O)c2cn(C)nc2C(F)F)cc1` [Example 46], the melting point came to 108 °C. In the data set with Coniophora puteana, the inhibition at 1 ppm was 80%, the inhibition at 3 ppm came out at 100% and the inhibition at 6 ppm was 100%. In the data set with Coriolus versicolor, the inhibition at 1 ppm was found to be 100%, the inhibition at 3 ppm is 100% and the inhibition at 6 ppm is 100%.
On to `Cc1ccc(OCc2ccccc2NC(=O)c2cn(C)nc2C(F)F)c(C)c1` [Example 50], for which the melting point worked out at 120 °C. In the data set on Coniophora puteana, the inhibition at 1 ppm stood at 100%, the inhibition at 3 ppm amounted to 100% and the inhibition at 6 ppm turned out to be 100%. Also, in the data set on Coriolus versicolor, the inhibition at 1 ppm is 100%, the inhibition at 3 ppm was determined as 100% and the inhibition at 6 ppm is 100%.
For `Cc1cccc(OCc2ccccc2NC(=O)c2cn(C)nc2C(F)F)c1` [Example 139], in the data set on Coniophora puteana, the “Inhibition of the growth of the hypha in % with Coniophora puteana at an active compound concentration of 1 ppm” value is listed as 100%, the “Inhibition of the growth of the hypha in % with Coniophora puteana at an active compound concentration of 3 ppm” value was 100% and the “Inhibition of the growth of the hypha in % with Coniophora puteana at an active compound concentration of 6 ppm” value amounted to 100%. Further, in the data set with Coriolus versicolor, the “Inhibition of the growth of the hypha in % with Coriolus versicolor at an active compound concentration of 1 ppm” value is 100%, the “Inhibition of the growth of the hypha in % with Coriolus versicolor at an active compound concentration of 3 ppm” value came out at 100% and the “Inhibition of the growth of the hypha in % with Coriolus versicolor at an active compound concentration of 6 ppm” value was found to be 100%.
Regarding `CC1=C(C(=O)Nc2ccccc2COc2ccccc2)SCCO1` [Example 141], in the data set with Coniophora puteana, the “Inhibition of the growth of the hypha in % with Coniophora puteana at an active compound concentration of 1 ppm” value amounted to 80%, the “Inhibition of the growth of the hypha in % with Coniophora puteana at an active compound concentration of 3 ppm” value is reported as 100% and the “Inhibition of the growth of the hypha in % with Coniophora puteana at an active compound concentration of 6 ppm” value was found to be 100%. In addition, in the data set with Coriolus versicolor, the “Inhibition of the growth of the hypha in % with Coriolus versicolor at an active compound concentration of 1 ppm” value came out at 90%, the “Inhibition of the growth of the hypha in % with Coriolus versicolor at an active compound concentration of 3 ppm” value is given as 100% and the “Inhibition of the growth of the hypha in % with Coriolus versicolor at an active compound concentration of 6 ppm” value is listed as 100%.
`CC1=C(C(=O)Nc2ccccc2COc2cccc(C)c2)SCCO1` [Example 142]: in the data set with Coniophora puteana, the “Inhibition of the growth of the hypha in % with Coniophora puteana at an active compound concentration of 1 ppm” value was determined as 70%, the “Inhibition of the growth of the hypha in % with Coniophora puteana at an active compound concentration of 3 ppm” value came out at 90% and the “Inhibition of the growth of the hypha in % with Coniophora puteana at an active compound concentration of 6 ppm” value came to 100%. Also, in the data set with Coriolus versicolor, the “Inhibition of the growth of the hypha in % with Coriolus versicolor at an active compound concentration of 1 ppm” value is reported as 90%, the “Inhibition of the growth of the hypha in % with Coriolus versicolor at an active compound concentration of 3 ppm” value came to 90% and the “Inhibition of the growth of the hypha in % with Coriolus versicolor at an active compound concentration of 6 ppm” value is listed as 100%.
For the molecule `CC1=C(C(=O)Nc2ccccc2COc2ccc(C)cc2)SCCO1` [Example 143], in the data set on Coniophora puteana, the “Inhibition of the growth of the hypha in % with Coniophora puteana at an active compound concentration of 1 ppm” value is reported as 80%, the “Inhibition of the growth of the hypha in % with Coniophora puteana at an active compound concentration of 3 ppm” value came to 90% and the “Inhibition of the growth of the hypha in % with Coniophora puteana at an active compound concentration of 6 ppm” value is 100%. In addition, in the data set on Coriolus versicolor, the “Inhibition of the growth of the hypha in % with Coriolus versicolor at an active compound concentration of 1 ppm” value was 100%, the “Inhibition of the growth of the hypha in % with Coriolus versicolor at an active compound concentration of 3 ppm” value is given as 100% and the “Inhibition of the growth of the hypha in % with Coriolus versicolor at an active compound concentration of 6 ppm” value amounted to 100%.
On to `CC1=C(C(=O)Nc2ccccc2COc2ccccc2C)SCCO1` [Example 144], for which, in the data set on Coniophora puteana, the “Inhibition of the growth of the hypha in % with Coniophora puteana at an active compound concentration of 1 ppm” value was 70%, the “Inhibition of the growth of the hypha in % with Coniophora puteana at an active compound concentration of 3 ppm” value is 90% and the “Inhibition of the growth of the hypha in % with Coniophora puteana at an active compound concentration of 6 ppm” value is 100%. In the data set on Coriolus versicolor, the “Inhibition of the growth of the hypha in % with Coriolus versicolor at an active compound concentration of 1 ppm” value is 90%, the “Inhibition of the growth of the hypha in % with Coriolus versicolor at an active compound concentration of 3 ppm” value came to 100% and the “Inhibition of the growth of the hypha in % with Coriolus versicolor at an active compound concentration of 6 ppm” value was found to be 100%.
`O=C(Nc1ccccc1Oc1ccccc1)c1ccccc1C(F)(F)F` [drawing 518]: the “Efficacy in %” value in the data set with Podosphaera leucotricha was 100%.
Same read-out and setting: for `Cc1nn(C)cc1C(=O)Nc1ccccc1Oc1ccccc1` [drawing 519] the value was 96%.
With `O=C(Nc1ccccc1Oc1ccccc1)c1ccccc1C(F)(F)F` [drawing 520], in the data set on Venturia inaequalis, the “Efficacy in %” value was determined as 83%.
Turning to `Cc1nn(C)cc1C(=O)Nc1ccccc1Oc1ccccc1` [drawing 521], in the data set on Venturia inaequalis, the “Efficacy in %” value amounted to 83%.
For the molecule `Cn1cc(C(=O)Nc2ccccc2C=Cc2ccccc2)c(C(F)(F)F)n1` [drawing 523], the “Efficacy in %” value in the data set with Venturia inaequalis is 97%.
On the same count and under the same terms, for `Cn1cc(C(=O)Nc2ccccc2C=Cc2ccccc2)c(C(F)F)n1` [drawing 524] the value was 100%.
The same measure, in the same setting: the figure for `Cc1ccc(SCc2ccccc2NC(=O)c2cn(C)nc2C(F)F)cc1` [drawing 525] is 100%.
Consider `Cc1ccc(OCc2ccccc2NC(=O)c2cn(C)nc2C(F)F)c(C)c1` [drawing 526], for which the “Efficacy in %” value in the data set with Venturia inaequalis turned out to be 95%.
In the case of `Cc1cccc(OCc2ccccc2NC(=O)c2cn(C)nc2C(F)(F)F)c1` [drawing 527], the “Efficacy in %” value in the data set on Venturia inaequalis is 90%.
With `Cc1nc(C(F)(F)F)c(C(=O)Nc2ccccc2CSc2ccccc2)s1` [drawing 531], in data set [1], the “Degree of kill in % after 7 d” value is listed as 100%.
As for `Cc1ccc(OCc2ccccc2NC(=O)c2cn(C)nc2C(F)F)c(C)c1` [drawing 532], the “Degree of kill in % after 7 d” value in data set [1] amounted to 100%.
On to `Cc1nn(C)cc1C(=O)Nc1ccccc1CSc1ccc(Cl)cc1` [drawing 534], for which the “Degree of kill in % after 7 d” value in data set [1] is 100%.
